Test results published in patent US4157391A, “Cholesterol derivative-based medicaments acting on bio-protective mechanisms” (The Green Cross Corporation, priority 1977, dated 1979).
Values after ≈ are worked out from the molar mass of the structure shown.

Key:
[1] = system: edemata grown on the mice legs (carrageenin); assay: Antiphlogistic action: carrageenin edema of hind legs in mice; assay type: in vivo
Protocol: 20 Mice were divided into four groups of five and the mice of two test groups were administered intra-abdominally with 7-hydroxycholesterol and 7-ketocholesterol, respectively, with the dose of 200 mg/kg (physiologically isotonic 2.0 weight % aqueous solution), and 1 hour later, 0.05 ml of 1% carrageenin was administered as a phlogogenic agent subcutaneously to the hind legs of these mice.
The sizes of the edemata grown on the mice legs with time after carrageenin administration were measured by a volume differential meter and compared with those of the control mice to which an isotonic sodium chloride solution was administered.
The test results are shown in the graph of FIG. 1 of the accompanying drawing. In the graph, percent of growth of edema is given on the vertical Y-axis and time (hour) after carrageenin administration is given on the horizontal X-axis. The numerals for the respective curves represent the respective specimens used in the test, that is, 1 represents isotonic sodium chloride solution, 2 cholesterol, 3 7-ketocholesterol, and 4 7-hydroxycholesterol.

PHA reaction = PHA reaction 50% inhibition (PHA method by Cooperband et al.), immunoregulatory action in vitro; assay type: cell-based; settings: read-out: PHA reaction 50% inhibition concentration
Source text: The PHA reaction 50% inhibition concentration of the compounds of the general formula (I) were examined by using the PHA method by Cooperband, S. R., et al., (The Journal of Immunology, 109, (1), 154, (1972)). For sake of comparison, the effect of IRA obtained according to the Occhino et al., method (The Journal of Immunology, 110, (3), 685, (1973)) was also shown.

rats = assay: Acute toxicity test in rats; assay type: in vivo; settings: intra-abdominal, 500, 1,000, 1,500 and 2,000 mg/kg, 5-day observation
Protocol: An acute toxicity test of 7-hydroxycholesterol and 7-ketocholesterol was conducted on one group of rats (5 rats) with average body weight of about 200 gr. Each compound was suspended in a physiological solution of sodium chloride and made into a uniform suspension by a supersonic treatment, and then such suspension was administered intro-abdominally to each rat at the doses of 500 mg/kg, 1,000 mg/kg, 1,500 mg/kg and 2,000 mg/kg, respectively.

With `CC(C)CCC[C@@H](C)[C@H]1CC[C@H]2[C@@H]3C(=O)C=C4C[C@@H](O)CC[C@]4(C)[C@H]3CC[C@]12C` [7-ketocholesterol] the growth of edema ([1]; 200 mg/kg intra-abdominally, time not separately stated, control 82% in four hours) was “about 50%”, the IC50 (PHA reaction) was 8 µg/mL (≈ 20 µM) and the “death in acute toxicity test” value (rats) was “No death”.

With `CC(C)CCC[C@@H](C)[C@H]1CC[C@H]2[C@@H]3C(O)C=C4C[C@@H](O)CC[C@]4(C)[C@H]3CC[C@]12C` (stereo partly shown) [7-hydroxycholesterol] the growth of edema ([1]; 200 mg/kg intra-abdominally, five hours after carrageenin, control 82% in four hours) was “about 40%”, the IC50 (PHA reaction) was 5 µg/mL (≈ 12.4 µM) and the “death in acute toxicity test” value (rats) was “No death”.

With `CC(C)CCC[C@@H](C)[C@H]1CC[C@H]2[C@@H]3CC=C4C[C@@H](O)CC[C@]4(C)[C@H]3CC[C@]12C` [cholesterol] the growth of edema ([1]; four hours after carrageenin, cholesterol group (reference data), control 82%) was 70%.
